{"source": "patent US20140309276A1", "about": "“Pharmaceutical Composition Comprising a Mixture of Carboxylated Oligonucleotides” (priority 2013, published 2014)", "key": {"[1]": {"test_system": "Ehrlich's ascites adenocarcinoma", "assay": "Antitumor activity on Ehrlich's ascites adenocarcinoma in mice", "type": "in vivo, Barbados mice", "conditions": "n = 10", "procedure": "The antitumor activity of the compositions were studied in models of Ehrlich's ascites carcinoma in young Barbados mice of both sexes with weights between 15-17 g (68 individuals), which were kept on a vivarium diet.\n45 mice were inoculated from a mouse with adenocarcinoma using an insulin syringe with 0.1 ml ascitic fluid in the region of the liver.\nTen mice were administered Composition in liposome form (see Table 5). Ten more mice were administered the Composition substance, and ten more were administered a 0.9% solution of sodium chloride with lipids."}, "[2]": {"test_system": "benzidine skin sarcoma", "assay": "Anticancer activity on benzidine skin sarcoma in mice", "type": "in vivo, Barbados mice", "conditions": "n = 10", "description": "Composition led to a 95% degeneration of tumor cells. To confirm the in vivo antitumor activity, Composition was studied in benzidine skin sarcoma and reinjected ascites adenocarcinomas in Barbados mice. In five mice with adenocarcinomas, the distribution of the Composition liposome throughout the animals' bodies was also studied using a fluorescent probe dissolved in a phospholipid layer.\nA Study of the Anticancer Activity of Composition on Benzidine Sarcoma. Before applying it to the silica gel, 7 ml of a solution of 2% benzidine and 0.9% sodium chloride was added until an opalescent suspension was formed (1 g silica gel for 5 ml NaCl solution). Twenty-five Barbados mice of both sexes with a weight of 18-20 g that were kept on a vivarium diet were administered benzidine and phorbol acetate immobilized on silica gel subcutaneously near the neck. After two weeks, 18 animals had developed tumors of different sizes in the form of a small bump on the neck near the silica gel granulomas. Each group of animals was administered the corresponding compound parenterally at a dose of 100 mcg/kg weight twice a day for two weeks, beginning at 16 days after administration of the carcinogen."}, "[3]": {"test_system": "HeLa-2 cells", "assay": "Anticancer (cytopathic) activity in a culture of HeLa-2 cells, Minimum Active Dose", "type": "cell-based", "conditions": "minimum amount causing degeneration of 90-95% of the cells; 199 medium; observed 5 days", "procedure": "Anticancer activity of Composition in a cell culture was made in a culture of HeLa-2 cells. For this purpose, 2-12 mcg of Composition per ml of medium were added to the 199 medium. A culture without Composition in it was used as a control. Cultures were observed daily over the course of five days. The Minimum Active Dose (MAD) of Composition was also considered to be the minimum amount of the drug that caused a degeneration of 90-95% of the cells (Table 1.)"}}, "data": [{"smiles": "CC(=O)O[C@@]12CO[C@@H]1C[C@H](O)[C@@]1(C)C(=O)[C@H](O)C3=C(C)[C@@H](OC(=O)[C@H](O)[C@@H](NC(=O)OC(C)(C)C)c4ccccc4)C[C@@](O)([C@@H](OC(=O)c4ccccc4)[C@H]21)C3(C)C", "note": "[Taxotere]", "values": [{"measurement": "Time of Death of Animals after the First Injection, Average Value, Experimental Animals", "setting": "[1]; in liposomes (+)", "value": "15 ± 0.5", "unit": "days"}, {"measurement": "Time of Death of Animals after the First Injection, Average Value, Experimental Animals", "setting": "[1]; substance without liposomes (−)", "value": "14 ± 0.12", "unit": "days"}, {"measurement": "Animal Survival", "setting": "[2]", "value": "28 ± 1.1", "unit": "days"}, {"measurement": "MAD (Minimum Active Dose)", "setting": "[3]", "value": 10, "unit": "µg/mL"}]}]}
